Experimental data: US20240299584A1, “NON-CODING RNA PROTECTING AGAINST HEART FAILURE” (MEDIZINISCHE HOCHSCHULE HANNOVER, priority 2019, published 2024)
Entries after “also recorded” stand apart in the source; their conditions may differ.

Key:
HL-1 cells [1] = assay: RT-qPCR expression in HL-1 cells; format: cell-based, mouse; conditions: for expression of circ-Insr: 24 h, epirubicin 1 and 5 μM, daunorubicin 1.25 and 2.5 μM, paclitaxel 0.1 and 0.5 μM
Description: HL-1 cells were cultured in Claycomb medium together with 10% FBS, norepinephrine, L-Glutamine and pencillin/streptomycin as manufacturer's protocol. 3T3 and RAW264.7 cells were cultured in DMEM with 10% FBS and pencillin/streptomycin. Neonatal rat cardiomyocytes (NRCM) were isolated from one to three-day old rat babies by using the Neonatal Heart Dissociation Kit (Miltenyi). Human iPSC derived cardiomyocytes (hiPSC-cm) were differentiated at the lab of IMTTS. […] NRCM and hipsc-CM were transduced by AAV6 (MOI: 1*10^4) for 72 hours.
(§1) RNA isolation from cell culture and heart tissue was done using Trifast (Peqlab) as per the manufacturer's instructions. Isolated RNA (500 ng-1000 ng) was reversed transcribed with random primer using iScript Select cDNA synthesis kit (Biorad). Real-Time quantative PCR was done with iQ SYBR Green mix (Biorad) on C1000 Touch Thermocycler (Biorad) using specific primer pairs. For amplification of circular RNAs, divergent primers were used while normal linear transcripts were amplified by convergent primers as usual. For RNase R resistant assay RNA was incubated with RNase R (Biozym Scientific) at 37° C. for 10 minutes and heat […] at 95° C. for three minutes. RNA was then reverse transcribed and amplified by specific PCR primers as mentioned before.

[2] = Body weight changes in doxorubicin cardiotoxicity mouse model; format: in vivo; conditions: doxorubicin and vehicle treated mice
Description: (§5) The AAV-circINSR construct was packaged into AAV9 and injected adult male mice (12 weeks) with a single dose of 2×10^12 viral genomes/mouse or with the same amount of AAV9-empty control vectors. After two weeks to allow full AAV mediated gene expression, the mice received a cumulative dose of 25 mg/kg/bw doxorubicin over a course of 5 weeks and were sacrificed 1 week later after echocardiography was performed (FIG. 4A).
(§6) C57BL/6 N mice of 8 weeks of age were injected (intraperitoneally) with doxorubicin at a dose of 5 mg/kg once a week for consecutive 5 weeks. One week later after the last doxorubicin treatment, echocardiography data were recorded by an independent blinded researcher using the Vevo 2100 system (Fujifilm Visulasonics, Inc). […] Echocardiography data were analyzed using standard imaging protocols (M-mode and B-mode) for global cardiac volumes and functioning using the Vevostrain software (Fujifilm Visulasonics, Inc). […] AAV9 (adeno-associated virus serotype 9) was injected (intravenously) 2 weeks before first doxorubicin injection. Animal experiments were randomized and blinded with an internal number.

mouse heart = assay: RT-qPCR expression analysis in mouse heart tissue; format: in vivo
Description: as §1

circulating circINSR = assay: circINSR level in mouse plasma; format: in vivo; conditions: doxorubicin vs PBS control
Source text: NcRNAs can be released into the extra-cellular space through passive mechanisms (e.g. necrosis of cells) or actively within secreted microvesicles^20. Since they can be readily isolated and measured from body fluids such as blood, these circulating ncRNAs have gained much attention as potential biomarkers for various diseases^21, 22. Indeed, ot was possible to detect circINSR in human and murine plasma (FIG. 9A,B). Strikingly, levels of circulating circINSR were diminished in mice treated with doxorubicin, which warrants further investigation of circINSR as a marker for anthracycline-related heart failure. Then the presence of circINSR in exosomes isolated from HL-1 cell culture supernatants was tested. […] To further corroborate the findings, a circINSR knock-out cell line was generated. Using a dual guideRNA CRISPR/Cas9 approach the majority of the circINSR forming exon was excised (FIG. 18A,B). Expectedly, this not only abrogated circINSR expression but also INSR protein expression (FIG. 18C,D). Then this cell line was used to overexpress circINSR via transfection with pcDNA3.1.
RNA isolation from cell culture and heart tissue was done using Trifast (Peqlab) as per the manufacturer's instructions. Isolated RNA (500 ng-1000 ng) was reversed transcribed with random primer using iScript Select cDNA synthesis kit (Biorad). […]

apoptotic cardiomyocytes = assay: TUNEL and cardiac troponin T co-staining of heart sections; format: in vivo, mouse; conditions: transversal heart sections, doxorubicin model; circINSR given as AAV9
Description: (§2) In addition to apoptosis, doxorubicin is known to cause cardiomyocyte atrophy^12 (G). Thus, histopathology analyses were performed on transversal heart section.
Cells were fixed with 4% paraformaldehyde for twenty minutes at room temperature and then permeabilized with ice-cold 0.1% Triton-X-100 in PBS for two minutes at room temperature. Next cells were incubated with enzyme labelling solution provided with In Situ cell death detection kit (Roche) for 1 hour at 37° C. For negative staining, enzyme was not added to the labelling solution. Cells were then washed and incubated with Dapi for 15 minutes. To specifically label neonatal rat cardiomyocytes and hipsc-CM, cells were co-stained with cardiac Troponin T (Thermofisher) after Tunel staining. Images were taken with Nikon Eclipse Ti microscope and images were analyzed with NIS Elements. For analysis in each case, ten different images were analyzed from different regions and average value was taken. Similarly, cryosections of heart were also processed for staining. Numerous images covering complete heart section was taken and Tunel positive nuclei were counted in each field. Average value for each heart was calculated.

cardiomyocytes = assay: Cardiomyocyte size on wheat germ agglutinin stained heart sections; format: in vivo, mouse; conditions: WGA stained heart sections, doxorubicin model; circINSR given as AAV9
Description: as §2
Cryosections of heart were stained with Alexa Fluor 488 labelled wheat germ agglutinin (Invitrogen) and dapi. Images were taken with Nikon Eclipse Ti microscope and images were analyzed with NIS Elements. For each heart 5 to 10 images were randomly taken from different regions of the section and minimum two hundred cells were measured and average value was taken for each heart.

HL-1 cells [3] = assay: Annexin V & 7-AAD staining (apoptosis); format: cell-based, mouse; conditions: HL-1 cells treated with doxorubicin 0.25 μM 48 h
Description: (§3) HL-1 cells were cultured in Claycomb medium together with 10% FBS, norepinephrine, L-Glutamine and pencillin/streptomycin as manufacturer's protocol. 3T3 and RAW264.7 cells were cultured in DMEM with 10% FBS and pencillin/streptomycin. Neonatal rat cardiomyocytes (NRCM) were isolated from one to three-day old rat babies by using the Neonatal Heart Dissociation Kit (Miltenyi). Human iPSC derived cardiomyocytes (hiPSC-cm) were differentiated at the lab of IMTTS. All the cells were treated with 0.25 μM Doxorubicin (Sigma-Aldrich) for 48 hours. circ-Insr siRNA (Eurofins), in vitro circular RNA and overexpression plasmid were transfected with Lipofectamine 2000 (Life Technologies) in OptiMEM medium. NRCM and hipsc-CM were transduced by AAV6 (MOI: 1*10^4) for 72 hours.
FlowCellect Annexin Red kit (Millipore) was used to stain apoptotic cells as per the manufacturer instruction. Briefly, cells were seeded in 12 well plate and next day treated with 0.25 μM Doxorubicin in normal medium with 10% FBS for forty-eight hours. Then cells were trypsinized and harvested and stained with Annexin-V for 15 minutes at 37° C. in 1× assay buffer. Annexin-V stained cells were centrifuged and washed with 1× assay buffer. Next cells were incubated with 7-AAD for 5 minutes and acquired on Guava (Millipore) flow cytometer. Data was analyzed with FLOWJO software.

HL-1 cells [4] = assay: WST-1 assay (cell viability); format: cell-based, mouse; conditions: HL-1 cells treated with doxorubicin 0.25 μM 48 h
Description: as §3
WST-1 assay was performed using Cell Proliferation Reagent WST-1 (Roche) as per the manufacturer instruction. Briefly, HL-1 cells were seeded in 96 well plate and next day treated with 0.25 μM Doxorubicin in normal medium with 10% FBS for forty-eight hours. Next, 10 μL WST1 reagent was added and incubated for 1 hour followed by the absorbance measurement (450 nm) at HT Synergy (Biotek) plate reader.

HL-1 cells [5] = assay: mtDNA copy number measurement; format: cell-based, mouse; conditions: doxorubicin 0.25 μM 48 h, circ-Insr by overexpression plasmid
Description: (§4) Based on the results of the foregoing examples, it was reasoned that circ-Insr could interact with SSBP1. To further confirm the interaction between circ-Insr and SSBP1, siRNA mediated circ-Insr knock-down was applied in HL-1 cells. Next, RNA pulldown was performed with circ-Insr and scramble biotinylated probes. RT-qPCR confirmed that decrease of circ-Insr appeared both in input and circ-Insr pulldown group (FIG. 23A). […] Therefore, we assumed that circ-Insr is a cofactor of SSBP1 resulting in the regulation of mitochondrial function in cardiomyocytes by stabilizing mtDNA. […] Furthermore, mito-damage assay was applied to measure the changes in mitochondrial membrane potential (MMP). […] Next, we co-transfected HL-1 cells with pcDNA-circ-Insr and SSBP1 siRNA and examined cell viability using the WST assay to explore whether SSBP1 participated in the circ-Insr overexpression-mediated therapy of doxorubicin-cardiotoxicity. RT-qPCR indicated SSBP1 siRNA could downregulate endogenous SSBP1 expression (FIG. 23G).
The ratio of mtDNA to genomic DNA was calculated by dividing copies of CYTB with copies of ACTB in each experiment (Li J, Chan M C, Yu Y, Bei Y H, Chen P, Zhou Q L, et al. miR-29b contributes to multiple types of muscle atrophy. Nature communications. 2017; 8). […] Fluorescence was measured during the last step of each cycle using the SYBR channel. […]

HL-1 cells [6] = assay: Mito-damage assay, mitochondrial membrane potential; format: cell-based, mouse; conditions: doxorubicin 0.25 μM 48 h
Description: as §4

[7] = human patients; cited from earlier work
C57BL/6 N mice = assay: Echocardiography in mouse model of chronic doxorubicin-induced cardiotoxicity
Description: as §5, §6

[8] = doxorubicin treated mice, in words

COc1cccc2c1C(=O)c1c(O)c3c(c(O)c1C2=O)C[C@@](O)(C(C)=O)C[C@@H]3O[C@H]1C[C@H](N)[C@H](O)[C@H](C)O1 [daunorubicin]
expression of circ-Insr (HL-1 cells [1]): significant downregulation

COc1cccc2c1C(=O)c1c(O)c3c(c(O)c1C2=O)C[C@@](O)(C(=O)CO)C[C@@H]3O[C@H]1C[C@H](N)[C@H](O)[C@H](C)O1 [doxorubicin]
body weight [2]: significantly halted the weight gain
Brca1 mRNA expression in hearts (mouse heart; doxorubicin treated mice vs PBS control): significantly lower levels
circINSR expression in heart (mouse heart; mouse heart, doxorubicin 5 mg/kg once a week for 5 weeks): significant decrease; also recorded: downregulation
levels of circulating circINSR (circulating circINSR): diminished
apoptotic cardiomyocytes (TUNEL / cTNT) (apoptotic cardiomyocytes): strong induction of apoptosis
cardiomyocyte size (cardiomyocytes): atrophic response
apoptotic cells (Annexin V) (HL-1 cells [3]): increased the number of apoptotic cells
cell viability (WST-1) (HL-1 cells [4]): significantly diminished; also recorded: impair
circINSR expression (HL-1 cells [1]; doxorubicin 0.25 μmol/L 48 h): downregulation
mtDNA copy number / mtDNA content (HL-1 cells [5]): significantly reduced
mitochondrial membrane potential (MMP) (HL-1 cells [6]): impair
underlying cause in heart transplantation patients, share of all cases [7]: 2-3%
Fractional Shortening (C57BL/6 N mice; Mean, mice with doxorubicin, cumulative 25 mg/kg over 5 weeks): significant reduction
left ventricular anterior and posterior wall thickness (C57BL/6 N mice; [8]): decreased
left ventricular volume (C57BL/6 N mice; [8]): increased

COc1cccc2c1C(=O)c1c(O)c3c(c(O)c1C2=O)C[C@@](O)(C(=O)CO)C[C@@H]3O[C@H]1C[C@H](N)[C@@H](O)[C@H](C)O1 [epirubicin]
expression of circ-Insr (HL-1 cells [1]): significant downregulation

CC(=O)O[C@H]1C(=O)[C@@]2(C)[C@H]([C@H](OC(=O)c3ccccc3)[C@]3(O)C[C@H](OC(=O)[C@H](O)[C@@H](NC(=O)c4ccccc4)c4ccccc4)C(C)=C1C3(C)C)[C@]1(OC(C)=O)CO[C@@H]1C[C@@H]2O [paclitaxel]
expression of circ-Insr (HL-1 cells [1]): no change
